From the supplement of paper PMC10307832

What was measured:
Test in all cases: relative viability (nuclei count vs DMSO), 5 days (fraction); higher = more cells survive
Tanzisertib + Decitabine = compound: O[C@H]1CC[C@H](Nc2ncc3nc(Nc4c(F)cc(F)cc4F)n([C@H]4CCOC4)c3n2)CC1 [Tanzisertib] + Nc1ncn([C@H]2C[C@H](O)[C@@H](CO)O2)c(=O)n1 [Decitabine] (partner 2 µM)
In short: (§1)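 After 5 days of treatment, lung cancer cells in 1536-well plates were fixed and stained in a single step (final 0.05% Triton X-100, 1% formaldehyde, 1 ug/ml Hoechst) and their nuclei counted on 4× images. Treatment had been applied by pin tool the day after seeding as one drug alone or as a fixed anchor-drug dose with five library-drug doses (not always all listed) in √10 steps. Relative viability is the nuclei count of treated wells divided by that of vehicle wells, and values are medians of duplicate plates.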

[1] = compound: C[C@@H](N)c1ccc(C(=O)Nc2ccnc3[nH]ccc23)cc1 + Cc1cc(Nc2cc(N3CCN(C)CC3)nc(Sc3ccc(NC(=O)C4CC4)cc3)n2)n[nH]1 [Tozasertib] (partner 0.1 µM)
In short: as §1

Tanzisertib + Alpelisib = compound: O[C@H]1CC[C@H](Nc2ncc3nc(Nc4c(F)cc(F)cc4F)n([C@H]4CCOC4)c3n2)CC1 [Tanzisertib] + Cc1nc(NC(=O)N2CCC[C@H]2C(N)=O)sc1-c1ccnc(C(C)(C)C(F)(F)F)c1 [Alpelisib] (partner 2 µM)
In short: as §1

[2] = compound: O[C@H]1CC[C@H](Nc2ncc3nc(Nc4c(F)cc(F)cc4F)n([C@H]4CCOC4)c3n2)CC1 [Tanzisertib] + CC(=O)c1c(C)c2cnc(Nc3ccc(N4CCNCC4)cn3)nc2n(C2CCCC2)c1=O [Palbociclib] (partner 0.5 µM)
In short: as §1

Cell Line | relative viability (Tanzisertib + Decitabine; first compound 0.08 µM) | relative viability (Tanzisertib + Decitabine; first compound 0.253 µM) | relative viability (Tanzisertib + Decitabine; first compound 0.8 µM) | relative viability (Tanzisertib + Decitabine; first compound 2.53 µM) | relative viability (Tanzisertib + Decitabine; first compound 8 µM) | relative viability ([1]; first compound 0.04 µM) | relative viability ([1]; first compound 0.1265 µM) | relative viability ([1]; first compound 0.4 µM) | relative viability ([1]; first compound 1.265 µM) | relative viability ([1]; first compound 4 µM) | relative viability (Tanzisertib + Alpelisib; first compound 0.08 µM) | relative viability (Tanzisertib + Alpelisib; first compound 0.253 µM) | relative viability (Tanzisertib + Alpelisib; first compound 0.8 µM) | relative viability (Tanzisertib + Alpelisib; first compound 2.53 µM) | relative viability (Tanzisertib + Alpelisib; first compound 8 µM) | relative viability ([2]; first compound 0.08 µM) | relative viability ([2]; first compound 0.253 µM) | relative viability ([2]; first compound 0.8 µM) | relative viability ([2]; first compound 2.53 µM) | relative viability ([2]; first compound 8 µM)
SW 1573 | 0.595 | 0.471 | 0.535 | 0.516 | 0.394 | 0.121 | 0.208 | 0.174 | 0.174 | 0.156 | 0.823 | 0.656 | 0.735 | 0.81 | 0.578 | 0.444 | 0.455 | 0.333 | 0.456 | 0.316
NCI-H1975 | 0.406 | 0.41 | 0.295 | 0.373 | 0.39 | 0.8 | 0.712 | 0.729 | 0.696 | 0.642 | 0.676 | 0.715 | 0.719 | 0.653 | 0.585 | 0.735 | 0.575 | 0.515 | 0.562 | 0.549
Calu-6 | – | – | – | – | – | – | – | – | – | – | 1.12 | 0.96 | 0.934 | 0.994 | 0.988 | – | – | – | – | –
NCI-H1648 | 0.487 | 0.6 | 0.613 | 0.524 | 0.376 | 0.655 | 0.513 | 0.984 | 1.02 | 0.957 | – | – | – | – | – | 0.228 | 0.267 | 0.212 | 0.229 | 0.251
NCI-H1623 | – | – | – | – | – | 0.443 | 0.452 | 0.459 | 0.475 | 0.462 | – | – | – | – | – | – | – | – | – | –
NCI-H3122 | 0.43 | 0.409 | 0.412 | 0.366 | 0.439 | 0.397 | 0.357 | 0.497 | – | 0.468 | 0.965 | 0.735 | 0.844 | 0.731 | 0.782 | 0.23 | 0.187 | 0.213 | 0.159 | 0.206
NCI-H2347 | 0.634 | 0.657 | 0.701 | 0.635 | 0.648 | 0.466 | 0.64 | 0.592 | – | 0.706 | 1.17 | 1.04 | 1.1 | 1.16 | 1.11 | 0.466 | 0.457 | 0.452 | 0.444 | 0.435
HCC-44 | 0.94 | 0.978 | 0.998 | 0.975 | 0.955 | 0.793 | 0.809 | 1.15 | 1.2 | 0.789 | 0.839 | 0.834 | 0.852 | 0.768 | 0.75 | 1.02 | 1.03 | 0.94 | 0.955 | 1.1
